Reference: US20230129359A1, “MUSCARINIC RECEPTOR 4 ANTAGONISTS AND METHODS OF USE” (Neurocrine Biosciences, Inc., priority 2020, published 2023)

Biological target: T1, human M4 receptor (Homo sapiens, UniProt P08173)
T1 construct: expressed in transfected cells; host or cells: CHO cells
T1 sequence (P08173 1-479): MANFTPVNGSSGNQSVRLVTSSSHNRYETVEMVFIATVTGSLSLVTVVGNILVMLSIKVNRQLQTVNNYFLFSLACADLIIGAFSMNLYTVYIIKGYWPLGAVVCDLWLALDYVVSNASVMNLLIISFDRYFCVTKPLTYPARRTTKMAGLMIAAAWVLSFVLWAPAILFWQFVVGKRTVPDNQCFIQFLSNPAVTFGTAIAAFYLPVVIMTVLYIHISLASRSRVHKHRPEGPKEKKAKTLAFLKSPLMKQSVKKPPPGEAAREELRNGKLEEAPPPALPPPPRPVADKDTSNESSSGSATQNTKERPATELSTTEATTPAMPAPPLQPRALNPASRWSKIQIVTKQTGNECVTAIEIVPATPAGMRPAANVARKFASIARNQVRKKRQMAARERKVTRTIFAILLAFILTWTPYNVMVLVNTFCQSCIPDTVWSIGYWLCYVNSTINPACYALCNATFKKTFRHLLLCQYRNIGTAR
Assay: Radioligand ([3H]N-methylscopolamine) binding assay, membranes from CHO cells expressing human M4 receptor
Details: Ki against human M4 receptor; membranes from CHO cells; tritiated N-methylscopolamine 1.5 nM; read-out: K
Summary of the method: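 Ki values derive from displacement of tritiated N-methylscopolamine (1.5 nM) from human M4 receptor in CHO membranes. Membranes, radioligand and twelve-point compound series were incubated together at 37 °C for 90 minutes in pH 7.4 HEPES/NaCl/MgCl2/EDTA buffer. Rapid vacuum filtration over polyethylenimine-pretreated filters was followed by radioactivity counting.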

SMILES	Ki
C[C@@H]1CN(c2nc3ccccc3s2)[C@@H](C)CN1C(=O)NC1CC2(C1)CN(Cc1ccccc1)C2 [Compound 244, (2R,5S)-4-(1,3-benzothiazol-2-yl)-N-{2-benzyl-2-azaspiro[3.3]heptan-6-yl}-2,5-dimethylpiperazine-1-carboxamide]	< 0.01 µM
C[C@@H]1CN(c2nc3ccc(C(F)(F)F)cc3o2)C[C@@H](C)N1C(=O)OC1CC2(C1)CN(Cc1ccccc1)C2 [Compound 429, 2-benzyl-2-azaspiro[3.3]heptan-6-yl (2R,6R)-2,6-dimethyl-4-[6-(trifluoromethyl)-1,3-benzoxazol-2-yl]piperazine-1-carboxylate]	0.01 to 0.1 µM
C[C@@H]1CN(c2nc3ccc(F)cc3s2)C[C@@H](C)N1C(=O)OC1CC2(C1)CN(Cc1ccc(C(N)=O)cc1)C2 [Compound 402, 2-[(4-carbamoylphenyl)methyl]-2-azaspiro[3.3]heptan-6-yl (2R,6R)-4-(6-fluoro-1,3-benzothiazol-2-yl)-2,6-dimethylpiperazine-1-carboxylate]	0.01 to 0.1 µM
C[C@@H]1CN(c2nc3ccccc3s2)CCN1C(=O)NC1CC2(C1)CN(Cc1ccccc1)C2 [Compound 245, (2R)-4-(1,3-benzothiazol-2-yl)-N-{2-benzyl-2-azaspiro[3.3]heptan-6-yl}-2-methylpiperazine-1-carboxamide]	0.01 to 0.1 µM
C[C@@H]1CN(c2cnc(C(F)(F)F)cn2)C[C@H](C)N1C(=O)NC1CC2(C1)CN(Cc1ccccc1)C2 [Compound 62, (2R,6S)—N-{2-Benzyl-2-azaspiro[3.3]heptan-6-yl}-2,6-dimethyl-4-[5-(trifluoromethyl)pyrazin-2-yl]piperazine-1-carboxamide]	0.01 to 0.1 µM
C[C@@H]1CN(c2nc3ccc(F)cc3s2)C[C@@H](C)N1C(=O)OC1CC2(C1)CN(Cc1ccccc1)C2 [Compound 369, 2-benzy-2-azaspiro[3.3]heptan-6-yl (2R,6R)-4-(6-fluoro-1,3-benzothiazol-2-yl)-2,6-dimethylpiperazine-1-carboxylate]	0.01 to 0.1 µM
C[C@@H]1CN(c2nc3ccc(C(F)(F)F)cc3o2)C[C@H](C)N1C(=O)OC1CC2(C1)CN(Cc1ccccc1)C2 [Compound 428, 2-benzyl-2-azaspiro[3.3]heptan-6-yl (2R,6S)-2,6-dimethyl-4-[6-(trifluoromethyl)-1,3-benzoxazol-2-yl]piperazine-1-carboxylate]	< 0.01 µM
C[C@@H]1CN(c2ccc(C(F)(F)F)cc2)C[C@H](C)N1C(=O)NC1CC2(C1)CN(Cc1ccccc1)C2 [Compound 47, (2R,6S)-N-{2-benzyl-2-azaspiro[3.3]heptan-6-yl}-2,6-dimethyl-4-[4-(trifluoromethyl)phenyl]pipera-zine-1-carboxamide]	< 0.01 µM
C[C@@H]1CN(c2ccc([N+](=O)[O-])cn2)C[C@H](C)N1C(=O)OC1CC2(C1)CN(Cc1ccccc1)C2 [Compound 163, 2-benzyl-2-azaspiro[3.3]heptan-6-yl (2R,6S)-2,6-dimethyl-4-(5-nitropyridin-2-yl)piperazine-1-carboxylate]	0.01 to 0.1 µM
C[C@@H]1CN(c2cnc3cc(C(F)(F)F)ccc3n2)[C@@H](C)CN1C(=O)NC1CC2(C1)CN(Cc1ccccc1)C2 [Compound 237, (2R,5S)-N-{2-benzyl-2-azaspiro[3.3]heptan-6-yl}-2,5-dimethyl-4-[6-(trifluoromethyl)quinoxalin-2-yl]piperazine-1-carboxamide]	< 0.01 µM
C[C@@H]1CN(c2ncc(C(F)(F)F)cn2)[C@@H](C)CN1C(=O)NC1CC2(C1)CN(Cc1ccccc1)C2 [Compound 1, (2R,5S)—N-{2-Benzyl-2-azaspiro[3.3]heptan-6-yl}-2,5-dimethyl-4-[5-(trifluoromethyl)pyrimidin-2-yl]piperazine-1-carboxamide]	< 0.01 µM
C[C@@H]1CN(c2nc3cc(F)c(F)cc3s2)[C@@H](C)CN1C(=O)OC1CC2(C1)CN(Cc1ccccc1)C2 [Compound 449, 2-benzyl-2-azaspiro[3.3]heptan-6-yl (2R,5S)-4-(5,6-difluoro-1,3-benzothiazol-2-yl)-2,56-dimethylpiperazine-1-carboxylate]	< 0.01 µM
C[C@@H]1CN(c2ncc(C(F)(F)F)cn2)C[C@@H](C)N1C(=O)NC1CC2(C1)CN(Cc1ccc(F)cc1)C2 [Compound 328, (2R,6R)-N-{2-[(4-fluorophenyl)methyl]-2-azaspiro[3.3]heptan-6-yl}-2,6-dimethyl-4-[5-(trifluoromethyl)pyrimidin-2-yl]piperazine-1-carboxamide]	0.01 to 0.1 µM
C[C@@H]1CN(c2cnc3ccccc3n2)C[C@H](C)N1C(=O)OC1CC2(C1)CN(Cc1ccc(F)cc1)C2 [Compound 391, 2-[(4-fluorophenyl)methyl]-2-azaspiro[3.3]heptan-6-yl (2R,6S)-2,6-dimethyl-4-(quinoxalin-2-yl)piperazine-1-carboxylate]	0.01 to 0.1 µM
C[C@@H]1CN(c2nc3ncc(C(F)(F)F)cc3s2)C[C@H](C)N1C(=O)OC1CC2(C1)CN(Cc1ccccc1)C2 [Compound 431, 2-benzyl-2-azaspiro[3.3]heptan-6-yl (2R,6S)-2,6-dimethyl-4-[6-(trifluoromethyl)-[1,3]thiazolo[4,5-b]pyridin-2-yl]piperazine-1-carboxylate]	0.01 to 0.1 µM
C[C@@H]1CN(c2ncc(C(F)(F)F)cn2)C[C@H](C)N1C(=O)NC1CC2(C1)CN(Cc1ccc(OC(F)F)cc1)C2 [Compound 322, (2R,6S)-N-(2-{[4-(difluoromethoxy)phenyl]meth-yl}-2-azaspiro[3.3]heptan-6-yl)-2,6-dimethyl-4-[5-(trifluoromethyl)pyrimidin-2-yl]piperazine-1-carboxamide]	0.01 to 0.1 µM
C[C@@H]1CN(c2ncc(OC(F)F)cn2)C[C@H](C)N1C(=O)OC1CC2(C1)CN(Cc1ccccc1)C2 [Compound 462, 2-benzyl-2-azaspiro[3.3]heptan-6-yl (2R,6S)-4-[5-(difluoromethoxy)pyrimidin-2-yl]-2,6-dimethylpiperazine-1-carboxylate]	< 0.01 µM
C[C@@H]1CN(c2cnc(C(F)(F)F)cn2)C[C@@H](C)N1C(=O)NC1CC2(C1)CN(Cc1ccc(Cl)cc1)C2 [Compound 259, (2R,6R)-N-{2-[(4-chlorophenyl)methyl]-2-azaspiro[3.3]heptan-6-yl}-2,6-dimethyl-4-[5-(trifluoromethyl)pyrazin-2-yl]piperazine-1-carboxamide]	0.1 to 1 µM

Other lines, results leading:

Ki	SMILES
0.1 to 1 µM	C[C@@H]1CN(c2ncc(C#N)cn2)C[C@H](C)N1C(=O)NC1CC2(C1)CN(Cc1ccc(F)cc1)C2 [Compound 330, (2R,6S)-4-(5-cyanopyrimidin-2-yl)-N-{2-[(4-fluorophenyl)methyl]-2-azaspiro[3.3]heptan-6-yl}-2,6-dimethylpiperazine-1-carboxamide]
0.1 to 1 µM	C[C@@H]1CN(c2ncc(C#N)cn2)CCN1C(=O)OC1CC2(C1)CN(Cc1ccc(Cl)cc1)C2 [Compound 483, 2-[(4-chlorophenyl)methyl]-2-azaspiro[3.3]heptan-6-yl (2R)-4-(5-cyanopyrimidin-2-yl)-2-methylpiperazine-1-carboxylate]
0.01 to 0.1 µM	C[C@@H]1CN(c2ncc(C#N)cn2)C[C@H](C)N1C(=O)OC1CC2(C1)CN(Cc1ccc(Cl)cc1)C2 [Compound 475, 2-[(4-chlorophenyl)methyl]-2-azaspiro[3.3]heptan-6-yl (2R,6S)-4-(5-cyanopyrimidin-2-yl)-2,6-dimethylpiperazine-1-carboxylate]
0.01 to 0.1 µM	C[C@@H]1CN(c2ncc(Cl)cn2)C[C@H](C)N1C(=O)OC1CC2(C1)CN(Cc1ccccc1)C2 [Compound 278, 2-benzyl-2-azaspiro[3.3]heptan-6-yl (2R,6S)-4-(5-chloropyrimidin-2-yl)-2,6-dimethylpiperazine-1-carboxylate]
0.01 to 0.1 µM	C[C@@H]1CN(c2ncc(C#N)cn2)[C@@H](C)CN1C(=O)NC1CC2(C1)CN(Cc1ccccc1)C2 [Compound 26, (2R,5S)-N-{2-benzyl-2-azaspiro[3.3]heptan-6-yl}-4-(5-cyanopyrimidin-2-yl)-2,5-dimethylpiperazine-1-carboxamide]
< 0.01 µM	C[C@@H]1CN(c2ncc(C(F)(F)F)cn2)[C@@H](C)CN1C(=O)NC1CC2(C1)CN(Cc1ccc(Cl)cc1)C2 [Compound 256, (2R,5S)-N-{2-[(4-chlorophenyl)methyl]-2-azaspiro[3.3]heptan-6-yl}-2,5-dimethyl-4-[5-(trifluoromethyl)pyrimidin-2-yl]piperazine-1-carboxamide]
0.01 to 0.1 µM	C[C@@H]1CN(c2ncc(C(F)(F)F)cn2)C[C@H](C)N1C(=O)OC1CC2(C1)CN(Cc1ccc(F)cc1)C2 [Compound 455, 2-[(4-fluorophenyl)methyl]-2-azaspiro[3.3]heptan-6-yl (2R,6S)-2,6-dimethyl-4-[5-(trifluoromethyl)pyrimidin-2-yl]piperazine-1-carboxylate]
< 0.01 µM	CC(C)c1cnc(N2C[C@@H](C)N(C(=O)OC3CC4(C3)CN(Cc3ccccc3)C4)[C@@H](C)C2)nc1 [Compound 505, 2-benzyl-2-azaspiro[3.3]heptan-6-yl (2R,6S)-2,6-dimethyl-4-[5-(rpopan-2-yl)pyrimidin-2-yl]piperazine-1-carboxylate]
0.01 to 0.1 µM	C[C@@H]1CN(c2ncc(C#N)cn2)C[C@H](C)N1C(=O)OC1CC2(C1)CN(Cc1ccccc1)C2 [Compound 130, 2-Benzyl-2-azaspiro[3.3]heptan-6-yl (2R,6S)-4-(5-cyanopyrimidin-2-yl)-2,6-dimethylpiperazine-1-carboxylate]
